This passage reports pest or weed control and YFM rating results from patent US10251394B2, “Molecules having pesticidal utility, and intermediates, compositions, and processes, related thereto” (Dow AgroSciences LLC, priority 2016, dated 2019).

Holding throughout (assay type): in vivo
Test [1] concerns Cabbage Looper (Trichoplusia ni). Description: Bioassay on Cabbage Looper (CL), 128-well diet tray assay. Conditions: Cabbage Looper, Table ABC, read-out: CL rating. In short, it runs like this: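 Mortality after five to seven days at 25° C (14:10 photoperiod), averaged over eight wells per compound. Diet in each well carried 50 μg/cm^2 of dried test molecule and received one to five second-instar larvae.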

The subject of test [2] is Yellow Fever Mosquito (Aedes aegypti). Description: Bioassay on Yellow Fever Mosquito (YFM) larvae, 96-well plate. To be noted: Table ABC. The procedure: Example C: Bioassays on Yellow Fever Mosquito (Aedes Aegypti, AEDSAE) (“YFM”)
Certain molecules disclosed in this document were tested against YFM using procedures described in the following paragraph. In the reporting of the results, the “GPA & YFM Rating Table” was used (See Table Section).
Master plates containing 400 μg of a molecule dissolved in 100 μL of dimethyl sulfoxide (DMSO) (equivalent to a 4000 ppm solution) are used. A master plate of assembled molecules contains 15 μL per well. To this plate, 135 μL of a 90:10 water:acetone mixture is added to each well. A robot (Biomek® NXP Laboratory Automation Workstation) is programmed to dispense 15 μL aspirations from the master plate into an empty 96-well shallow plate (“daughter” plate). There are 6 reps (“daughter” plates) created per master. The created daughter plates are then immediately infested with YFM larvae.
The day before plates are to be treated, mosquito eggs are placed in Millipore water containing liver powder to begin hatching (4 g. into 400 mL). After the daughter plates are created using the robot, they are infested with 220 μL of the liver powder/larval mosquito mixture (about 1 day-old larvae). After plates are infested with mosquito larvae, a non-evaporative lid is used to cover the plate to reduce drying. Plates are held at room temperature for 3 days prior to grading. After 3 days, each well is observed and scored based on mortality. The results are indicated in the table entitled “Table ABC: Biological Results” (See Table Section).

The test system of test [3] is Beet Armyworm (Spodoptera exigua). Briefly: Bioassay on Beet Armyworm (BAW), 128-well diet tray assay. To be noted: Beet Armyworm, Table ABC, read-out: BAW rating. The essentials: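 Percent mortality, averaged over eight wells, was scored after five to seven days at 25° C under 14:10 light-dark. Each well's diet carried 50 μg/cm^2 of test molecule applied in acetone-water (90:10) and dried before one to five second-instar larvae were added.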

Consider `C[C@@H](NC(=O)c1ccc(/C(F)=C/C(c2ccc(Br)c(Br)c2)C(F)(F)F)cc1C(F)(F)F)C(=O)NCC(F)(F)F` (stereo partly drawn) [F79, 4-((Z)-3-(3,4-Dibromophenyl)-1,4,4,4-tetrafluorobut-1-en-1-yl)-N—((R)-1-oxo-1-((2,2,2-trifluoroethyl)amino)propan-2-yl)-2-(trifluoromethyl)benzamide], for which the pest or weed control at 50 µg/cm2 in test [1] and in test [3] was 50 to 100% throughout. In test [2], the YFM rating entry was “A (80-100)”.
For `Cc1cc(C(/C=C(\F)c2ccc(C(=O)N[C@H](C)C(=O)N(C)CC(F)(F)F)c(C(F)(F)F)c2)C(F)(F)F)cc(C)c1Cl` (stereo partly drawn) [F102, 4-((Z)-3-(4-Chloro-3,5-dimethylphenyl)-1,4,4,4-tetrafluorobut-1-en-1-yl)-N—((R)-1-(methyl(2,2,2-trifluoroethyl)amino)-1-oxopropan-2-yl)-2-(trifluoromethyl)benzamide], the pest or weed control at 50 µg/cm2 in test [1] and in test [3] was 50 to 100% in each case. For the same compound, the YFM rating entry in test [2] was “A (80-100)”.
With `CN(CC(F)(F)F)C(=O)C1(NC(=O)c2ccc(/C(F)=C/C(c3ccc(Cl)c(F)c3)C(F)(F)F)cc2C(F)(F)F)CC1` (stereo not shown) [PF22, (Z)-4-(3-(4-Chloro-3-fluorophenyl)-1,4,4,4-tetrafluorobut-1-en-1-yl)-N-(1-(methyl(2,2,2-trifluoroethyl)carbamoyl)cyclopropyl)-2-(trifluoromethyl)benzamide], the pest or weed control at 50 µg/cm2 in test [1] and in test [3] was 50 to 100% throughout. Also, in test [2], the YFM rating entry is listed as “B (More than 0-Less than 80)”.
For the compound `O=C(NC1(C(=O)NCC(F)(F)F)CC1)c1ccc(/C(F)=C/C(c2cc(Cl)cc(Cl)c2)C(F)(F)F)cc1C(F)(F)F` (stereo not shown) [F39, (Z)-4-(3-(3,5-Dichlorophenyl)-1,4,4,4-tetrafluorobut-1-en-1-yl)-N-(1-((2,2,2-trifluoroethyl)carbamoyl)cyclopropyl)-2-(trifluoromethyl)benzamide], the pest or weed control at 50 µg/cm2 in test [1] and in test [3] was 50 to 100% each time. Also, in test [2], the YFM rating result is listed as “A (80-100)”.
Regarding `O=C(CNC(=O)c1ccc(/C(F)=C/C(c2ccc(C(F)(F)F)c(Br)c2)C(F)(F)F)cc1C(F)(F)F)NCC(F)(F)F` (stereo not shown) [F209, (Z)-4-(3-(3-Bromo-4-(trifluoromethyl)phenyl)-1,4,4,4-tetrafluorobut-1-en-1-yl)-N-(2-oxo-2-((2,2,2-trifluoroethyl)amino)ethyl)-2-(trifluoromethyl)benzamide], the pest or weed control at 50 µg/cm2 in test [1] and in test [3] was 50 to 100% throughout. The YFM rating entry in test [2] was “A (80-100)”.
On to `C=Cc1c(Cl)cc(C(/C=C(\F)c2ccc(C(=O)NCC(=O)N(C)CC(F)(F)F)c(C(F)(F)F)c2)C(F)(F)F)cc1Cl` (stereo not shown) [F85, (Z)-4-(3-(3,5-Dichloro-4-vinylphenyl)-1,4,4,4-tetrafluorobut-1-en-1-yl)-N-(2-(methyl(2,2,2-trifluoroethyl)amino)-2-oxoethyl)-2-(trifluoromethyl)benzamide], for which the pest or weed control at 50 µg/cm2 in test [1] and in test [3] was 50 to 100% in each case. The YFM rating entry in test [2] is “A (80-100)”.
On to `Cc1cc(C(/C=C(\F)c2ccc(C(=O)NC3(C(=O)N(C)CC(F)(F)F)CC3)c(C(F)(F)F)c2)C(F)(F)F)cc(C)c1Cl` (stereo not shown) [F134, (Z)-4-(3-(4-Chloro-3,5-dimethylphenyl)-1,4,4,4-tetrafluorobut-1-en-1-yl)-N-(1-(methyl(2,2,2-trifluoroethyl)carbamoyl)cyclopropyl)-2-(trifluoromethyl)benzamide], for which, in test [2], the YFM rating result is on record as “B (More than 0-Less than 80)”.
`C[C@@H](NC(=O)c1ccc(/C(F)=C/C(c2cc(Cl)cc(Cl)c2)C(F)(F)F)cc1C(F)(F)F)C(=O)NCC(F)(F)F` (stereo partly drawn) [F144, 4-((Z)-3-(3,5-Dichlorophenyl)-1,4,4,4-tetrafluorobut-1-en-1-yl)-N—((R)-1-oxo-1-((2,2,2-trifluoroethyl)amino)propan-2-yl)-2-(trifluoromethyl)benzamide]: in test [2], the YFM rating result is “A (80-100)”.
With `CN(CC(F)(F)F)C(=O)C1(NC(=O)c2ccc(/C(F)=C/C(c3ccc(Cl)c(Cl)c3)C(F)(F)F)cc2C(F)(F)F)CC1` (stereo not shown) [F135, (Z)-4-(3-(3,4-Dichlorophenyl)-1,4,4,4-tetrafluorobut-1-en-1-yl)-N-(1-(methyl(2,2,2-trifluoroethyl)carbamoyl)cyclopropyl)-2-(trifluoromethyl)benzamide], the YFM rating result in test [2] is “B (More than 0-Less than 80)”.
Turning to `CN(CC(F)(F)F)C(=O)C1(NC(=O)c2ccc(/C(F)=C/C(c3cc(Cl)cc(Cl)c3)C(F)(F)F)cc2C(F)(F)F)CC1` (stereo not shown) [F133, (Z)-4-(3-(3,5-Dichlorophenyl)-1,4,4,4-tetrafluorobut-1-en-1-yl)-N-(1-(methyl(2,2,2-trifluoroethyl)carbamoyl)cyclopropyl)-2-(trifluoromethyl)benzamide], in test [2], the YFM rating result is “B (More than 0-Less than 80)”.
With `O=C(CNC(=O)c1ccc(/C(F)=C/C(c2ccc(Br)c(Br)c2)C(F)(F)F)cc1C(F)(F)F)NCC(F)(F)F` (stereo not shown) [F107, (Z)-4-(3-(3,4-Dibromophenyl)-1,4,4,4-tetrafluorobut-1-en-1-yl)-N-(2-oxo-2-((2,2,2-trifluoroethyl)amino)ethyl)-2-(trifluoromethyl)benzamide], the pest or weed control at 50 µg/cm2 in test [1] and in test [3] was 50 to 100% in each case.
Regarding `CN(CC(F)(F)F)C(=O)C1(NC(=O)c2ccc(/C(F)=C/C(c3cc(Cl)c(Br)c(Cl)c3)C(F)(F)F)cc2C(F)(F)F)CC1` (stereo not shown) [F117, (Z)-4-(3-(4-Bromo-3,5-dichlorophenyl)-1,4,4,4-tetrafluorobut-1-en-1-yl)-N-(1-(methyl(2,2,2-trifluoroethyl)carbamoyl)cyclopropyl)-2-(trifluoromethyl)benzamide], the pest or weed control at 50 µg/cm2 in test [1] and in test [3] was 50 to 100% throughout.
For the compound `CC(F)(F)C(/C=C(\F)c1ccc(C(=O)NCC(=O)NCC(F)(F)F)c(C(F)(F)F)c1)c1ccc(Cl)c(Cl)c1` (stereo not shown) [F129, (Z)-4-(3-(3,4-Dichlorophenyl)-1,4,4-trifluoropent-1-en-1-yl)-N-(2-oxo-2-((2,2,2-trifluoroethyl)amino)ethyl)-2-(trifluoromethyl)benzamide], the pest or weed control at 50 µg/cm2 in test [1] and in test [3] was 50 to 100% each time.
With `C=CCNC(=O)[C@@H](C)NC(=O)c1ccc(/C(F)=C/C(c2cc(Cl)c(Cl)c(Cl)c2)C(F)(F)F)cc1C(F)(F)F` (stereo partly drawn) [F11, N—((R)-1-(Allylamino)-1-oxopropan-2-yl)-4-((Z)-1,4,4,4-tetrafluoro-3-(3,4,5-trichlorophenyl)but-1-en-1-yl)-2-(trifluoromethyl)benzamide], the pest or weed control at 50 µg/cm2 in test [1] and in test [3] was 50 to 100% in each case.
On to `C=Cc1cc(/C(F)=C/C(c2cc(Cl)c(Cl)c(Cl)c2)C(F)(F)F)ccc1C(=O)NCC(=O)NCC(F)(F)F` (stereo not shown) [F200, (Z)—N-(2-Oxo-2-((2,2,2-trifluoroethyl)amino)ethyl)-4-(1,4,4,4-tetrafluoro-3-(3,4,5-trichlorophenyl)but-1-en-1-yl)-2-vinylbenzamide], for which the pest or weed control at 50 µg/cm2 in test [1] and in test [3] was 50 to 100% in each case.
Consider `Cc1cc(C(/C=C(\F)c2ccc(C(=O)N[C@H](C)C(=O)NCC(F)(F)F)c(C(F)(F)F)c2)C(F)(F)F)ccc1Cl` (stereo partly shown) [PF48], for which the pest or weed control at 50 µg/cm2 in test [1] and in test [3] was 50 to 100% in each case.
Take `C=C(C)c1c(Cl)cc(C(/C=C(\F)c2ccc(C(=O)N[C@H](C)C(=O)NCC(F)(F)F)c(C(F)(F)F)c2)C(F)(F)F)cc1Cl` (stereo partly drawn) [F148, 4-((Z)-3-(3,5-Dichloro-4-(prop-1-en-2-yl)phenyl)-1,4,4,4-tetrafluorobut-1-en-1-yl)-N—((R)-1-oxo-1-((2,2,2-trifluoroethyl)amino)propan-2-yl)-2-(trifluoromethyl)benzamide]: the pest or weed control at 50 µg/cm2 in test [1] and in test [3] was 50 to 100% in each case.
Turning to `CCC(F)(F)C(/C=C(\F)c1ccc(C(=O)N[C@H](C)C(=O)NCC(F)(F)F)c(C(F)(F)F)c1)c1cc(Cl)c(Cl)c(Cl)c1` (stereo partly drawn) [F174, N—((R)-1-Oxo-1-((2,2,2-trifluoroethyl)amino)propan-2-yl)-4-((Z)-1,4,4-trifluoro-3-(3,4,5-trichlorophenyl)hex-1-en-1-yl)-2-(trifluoromethyl)benzamide], the pest or weed control at 50 µg/cm2 in test [1] and in test [3] was 50 to 100% each time.
With `C=Cc1cc(C(/C=C(\F)c2ccc(C(=O)N[C@H](C)C(=O)NCC(F)(F)F)c(C(F)(F)F)c2)C(F)(F)F)cc(Cl)c1Cl` (stereo partly drawn) [F186, 4-((Z)-3-(3,4-dichloro-5-vinylphenyl)-1,4,4,4-tetrafluorobut-1-en-1-yl)-N—((R)-1-oxo-1-((2,2,2-trifluoroethyl)amino)propan-2-yl)-2-(trifluoromethyl)benzamide], the pest or weed control at 50 µg/cm2 in test [1] and in test [3] was 50 to 100% throughout.
